# Reference: ChEMBL document CHEMBL4002647, “BMS-933043, a Selective α7 nAChR Partial Agonist for the Treatment of Cognitive Deficits Associated with Schizophrenia” (ACS Med Chem Lett, 2017)
# Key:
# [1] = target: Neuronal acetylcholine receptor subunit alpha-7 (Rattus norvegicus, UniProt Q05941); experiment: Agonist activity at rat alpha7 nAChR expressed in HEK293 cells assessed as increase in Ca2+ flux by Fluo-4 AM dye based FLIPR assay; assay type: cell-based
# [2] = Drug level treated with (2R)-N-(6-(1H-Imidazol-1-yl)-4-pyrimidinyl)-4'H-spiro[4-azabicyclo[2.2.2]octane-2,5'-[1,3]oxazol]-2'-amine
# Sequence of Neuronal acetylcholine receptor subunit alpha-7 (Q05941 whole entry): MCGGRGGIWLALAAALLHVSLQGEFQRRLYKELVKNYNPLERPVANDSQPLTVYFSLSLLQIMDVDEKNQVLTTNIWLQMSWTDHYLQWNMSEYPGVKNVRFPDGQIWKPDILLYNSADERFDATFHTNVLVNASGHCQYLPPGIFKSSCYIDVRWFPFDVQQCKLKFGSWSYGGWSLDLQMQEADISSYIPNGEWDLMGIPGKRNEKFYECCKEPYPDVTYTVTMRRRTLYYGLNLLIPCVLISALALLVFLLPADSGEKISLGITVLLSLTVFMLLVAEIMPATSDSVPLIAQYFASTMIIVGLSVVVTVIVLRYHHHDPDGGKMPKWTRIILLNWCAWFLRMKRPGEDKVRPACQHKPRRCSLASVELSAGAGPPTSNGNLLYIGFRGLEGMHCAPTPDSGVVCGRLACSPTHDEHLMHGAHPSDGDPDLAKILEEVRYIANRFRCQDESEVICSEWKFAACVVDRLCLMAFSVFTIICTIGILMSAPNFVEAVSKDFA
compound,measurement,setting,value
"[O-][N+]12CCC(CC1)C1(CN=C(Nc3cc(-n4ccnc4)ncn3)O1)C2 (single isomer, unassigned)",EC50,[1],> 50 µM
same,Drug metabolism,[2],Metabolite detected
